Test results reported in US20230092890A1, “1, 3, 4-Oxadiazole derivative compounds as histone deacetylase 6 inhibitor, and the pharmaceutical composition comprising the same” (Chong Kun Dang Pharmaceutical Corp., priority 2019, published 2023).

Legend:
HDAC1 = target: T1, HDAC1 (Homo sapiens, UniProt Q13547); assay: HDAC enzyme activity inhibition (in vitro), HDAC1 Fluorimetric Drug Discovery Assay Kit; type: biochemical; conditions: samples at 100, 1000 and 10000 nM; 37° C. 60 minutes; fluorescence Ex 390, Em 460; read-out: HDAC1 IC50
T1 construct: purchased Enzolifesciences BML-AK511
Description: <Experimental Example 1> Identification of HDAC Enzyme Activity Inhibition (In Vitro)
A selective HDAC6 inhibitor is important for selectivity of HDAC1 inhibition, which is a cause of side effects, and thus HDAC1/6 enzyme selectivity and cell selectivity (HDAC1: histone acetylation/HDAC6: tubulin acetylation) were identified.
(§1) A HDAC enzyme inhibitory capacity of a test material was measured by using HDAC1 Fluorimetric Drug Discovery Assay Kit (Enzolifesciences: BML-AK511) and HDAC6 human recombinant (Calbiochem: 382180). For a HDAC1 assay, samples were treated at a concentration of 100, 1000 and 10000 nM. For a HDAC6 assay, samples were treated at a concentration of 0.1, 1, 10, 100 and 1000 nM. After the above sample treatment, a reaction was continued at 37° C. for 60 minutes, then treated with a developer, and then subjected to a reaction at 37° C. for 30 minutes, after which fluorescence intensity (Ex 390, Em 460) was measured by using FlexStatin3 (Molecular device).

HDAC6 human recombinant = target: T2, HDAC6 human recombinant (Homo sapiens, UniProt Q9UBN7); assay: HDAC enzyme activity inhibition (in vitro), HDAC6 assay; type: biochemical; conditions: samples at 0.1, 1, 10, 100 and 1000 nM; 37° C. 60 minutes; fluorescence Ex 390, Em 460; read-out: HDAC6 IC50
T2 construct: purchased Calbiochem 382180
T2 sequence (Q9UBN7 1-1215): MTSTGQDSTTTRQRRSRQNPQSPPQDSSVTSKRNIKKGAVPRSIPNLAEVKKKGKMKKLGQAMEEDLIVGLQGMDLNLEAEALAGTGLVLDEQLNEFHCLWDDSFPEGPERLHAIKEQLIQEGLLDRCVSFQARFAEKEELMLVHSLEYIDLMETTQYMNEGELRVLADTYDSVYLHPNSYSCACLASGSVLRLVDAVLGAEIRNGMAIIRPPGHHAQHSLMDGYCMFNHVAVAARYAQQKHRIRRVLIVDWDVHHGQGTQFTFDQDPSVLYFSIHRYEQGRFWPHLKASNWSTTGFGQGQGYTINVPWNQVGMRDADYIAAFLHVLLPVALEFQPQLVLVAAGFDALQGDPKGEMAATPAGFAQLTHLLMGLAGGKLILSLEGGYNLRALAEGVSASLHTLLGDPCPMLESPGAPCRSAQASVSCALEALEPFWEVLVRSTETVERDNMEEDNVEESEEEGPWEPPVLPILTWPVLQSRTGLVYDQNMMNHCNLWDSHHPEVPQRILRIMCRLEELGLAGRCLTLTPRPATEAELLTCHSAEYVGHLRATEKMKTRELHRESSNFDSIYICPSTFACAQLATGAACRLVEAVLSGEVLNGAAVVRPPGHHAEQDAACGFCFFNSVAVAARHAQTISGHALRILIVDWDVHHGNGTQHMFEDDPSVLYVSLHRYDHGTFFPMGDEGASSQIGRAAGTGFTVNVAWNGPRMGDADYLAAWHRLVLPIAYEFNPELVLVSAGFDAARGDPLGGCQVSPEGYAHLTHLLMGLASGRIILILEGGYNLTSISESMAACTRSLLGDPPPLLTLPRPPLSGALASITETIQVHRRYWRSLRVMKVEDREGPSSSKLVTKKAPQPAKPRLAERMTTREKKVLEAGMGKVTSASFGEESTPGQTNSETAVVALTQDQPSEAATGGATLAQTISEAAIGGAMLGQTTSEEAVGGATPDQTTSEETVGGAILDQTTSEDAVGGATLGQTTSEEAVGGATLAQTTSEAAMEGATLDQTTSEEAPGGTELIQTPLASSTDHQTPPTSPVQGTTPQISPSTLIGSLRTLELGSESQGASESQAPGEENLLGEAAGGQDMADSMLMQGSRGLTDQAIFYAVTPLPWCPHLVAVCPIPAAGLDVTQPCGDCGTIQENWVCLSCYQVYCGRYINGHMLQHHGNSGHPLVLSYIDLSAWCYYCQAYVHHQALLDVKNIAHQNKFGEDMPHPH
Description: as §1, with “For a HDAC6 assay, samples were treated at a concentration of 0.1, 1, 10, 100 and 1000 nM.” left out

T1 sequence (Q13547 whole entry): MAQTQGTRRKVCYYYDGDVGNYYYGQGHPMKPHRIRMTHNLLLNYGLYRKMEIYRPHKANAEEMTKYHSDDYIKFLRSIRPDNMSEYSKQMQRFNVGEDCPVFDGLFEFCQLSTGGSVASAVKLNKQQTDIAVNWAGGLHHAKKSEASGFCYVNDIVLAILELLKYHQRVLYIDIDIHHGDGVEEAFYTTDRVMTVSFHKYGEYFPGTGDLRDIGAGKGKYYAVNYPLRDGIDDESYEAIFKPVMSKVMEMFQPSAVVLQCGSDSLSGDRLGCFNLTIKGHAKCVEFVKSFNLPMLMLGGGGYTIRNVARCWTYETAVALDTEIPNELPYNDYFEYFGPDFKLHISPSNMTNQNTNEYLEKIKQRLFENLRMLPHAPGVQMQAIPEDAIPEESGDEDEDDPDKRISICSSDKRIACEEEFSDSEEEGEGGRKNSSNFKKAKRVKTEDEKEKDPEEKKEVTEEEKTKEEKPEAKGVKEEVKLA

SMILES	IC50 (HDAC1)	IC50 (HDAC6 human recombinant)
CN1CCC(n2c(=O)n(Cc3ccc(-c4nnc(C(F)F)o4)cc3F)c3ccccc32)CC1 [Compound 1, 1-(4-(5-(difluoromethyl)-1,3,4-oxadiazole-2-yl)-2-fluorobenzyl)-3-(1-methylpiperidine-4-yl)-1,3-dihydro-2H-benzo[d]imidazole-2-one]	> 10000 nM	236 nM
O=c1n(CCN2CCOCC2)c2ccccc2n1Cc1ccc(-c2nnc(C(F)F)o2)cc1F [Compound 2, 1-(4-(5-(difluoromethyl)-1,3,4-oxadiazole-2-yl)-2-fluorobenzyl)-3-(2-morpholinoethyl)-1,3-dihydro-2H-benzo[d]imidazole-2-one]	> 10000 nM	203 nM
CN(C)CCn1c(=O)n(Cc2ccc(-c3nnc(C(F)F)o3)cn2)c2ccccc21 [Compound 3, 1-((5-(5-(difluoromethyl)-1,3,4-oxadiazole-2-yl)pyridine-2-yl)methyl)-3-(2-(dimethylamino)ethyl)-1,3-dihydro-2H-benzo[d]imidazole-2-one]	> 10000 nM	115 nM
CN1CCC(n2c(=O)n(Cc3ccc(-c4nnc(C(F)F)o4)cn3)c3ccccc32)CC1 [Compound 4, 1-((5-(5-(difluoromethyl)-1,3,4-oxadiazole-2-yl)pyridine-2-yl)methyl)-3-(1-methylpiperidine-4-yl)-1,3-dihydro-2H-benzo[d]imidazole-2-one]	> 10000 nM	178 nM
CN1CCC(n2c(=O)n(Cc3ccc(-c4nnc(C(F)F)o4)cc3)c3ccccc32)CC1 [Compound 5, 1-(4-(5-(difluoromethyl)-1,3,4-oxadiazole-2-yl)benzyl)-3-(1-methylpiperidine-4-yl)-1,3-dihydro-2H-benzo[d]imidazole-2-one]	> 10000 nM	340 nM
CN1CCC(n2c(=O)n(Cc3ccc(-c4nnc(C(F)F)o4)cn3)c3ccccc32)C1 (stereo not shown) [Compound 6, 1-((5-(5-(difluoromethyl)-1,3,4-oxadiazole-2-yl)pyridine-2-yl)methyl)-3-(1-methylpyrrolidine-3-yl)-1,3-dihydro-2H-benzo[d]imidazole-2-one]	> 10000 nM	203 nM
CN1CC(n2c(=O)n(Cc3ccc(-c4nnc(C(F)F)o4)cn3)c3ccccc32)C1 [Compound 7, 1-((5-(5-(difluoromethyl)-1,3,4-oxadiazole-2-yl)pyridine-2-yl)methyl)-3-(1-methylazetidine-3-yl)-1,3-dihydro-2H-benzo[d]imidazole-2-one]	> 10000 nM	264 nM
CN1CCC(N2Cc3ccccc3N(Cc3ccc(-c4nnc(C(F)F)o4)cn3)C2=O)CC1 [Compound 8, 1-((5-(5-(difluoromethyl)-1,3,4-oxadiazole-2-yl)pyridine-2-yl)methyl)-3-(1-methylpiperidine-4-yl)-3,4-dihydroquinazoline-2(1H)-one]	> 10000 nM	171 nM
CN1CC(N2Cc3ccccc3N(Cc3ccc(-c4nnc(C(F)F)o4)cn3)C2=O)C1 [Compound 9, 1-((5-(5-(difluoromethyl)-1,3,4-oxadiazole-2-yl)pyridine-2-yl)methyl)-3-(1-methylazetidine-3-yl)-3,4-dihydroquinazoline-2(1H)-one]	> 10000 nM	332 nM
CN1CCC(Cn2c(=O)n(Cc3ccc(-c4nnc(C(F)F)o4)cn3)c3ccccc32)CC1 [Compound 10, 1-((5-(5-(difluoromethyl)-1,3,4-oxadiazole-2-yl)pyridine-2-yl)methyl)-3-((1-methylpiperidine-4-yl)methyl)-1,3-dihydro-2H-benzo[d]imidazole-2-one]	> 10000 nM	222 nM
O=c1n(Cc2ccc(-c3nnc(C(F)F)o3)cn2)c2ccccc2n1C1COC1 [Compound 11, 1-((5-(5-(difluoromethyl)-1,3,4-oxadiazole-2-yl)pyridine-2-yl)methyl)-3-(oxetan-3-yl)-1,3-dihydro-2H-benzo[d]imidazole-2-one]	> 10000 nM	241 nM
O=c1n(Cc2ccc(-c3nnc(C(F)F)o3)cn2)c2ccccc2n1C1CCOCC1 [Compound 12, 1-((5-(5-(difluoromethyl)-1,3,4-oxadiazole-2-yl)pyridine-2-yl)methyl)-3-(tetrahydro-2H-pyran-4-yl)-1,3-dihydro-2H-benzo[d]imidazole-2-one]	> 10000 nM	160 nM
O=c1n(Cc2ccc(-c3nnc(C(F)F)o3)cn2)c2ccccc2n1C1CCS(=O)(=O)CC1 [Compound 13, 1-((5-(5-(difluoromethyl)-1,3,4-oxadiazole-2-yl)pyridine-2-yl)methyl)-3-(1,1-dioxydotetrahydro-2H-thiopyran-4-yl)-1,3-dihydro-2H-benzo[d]imidazole-2-one]	> 10000 nM	161 nM
CCN1CCC(n2c(=O)n(Cc3ccc(-c4nnc(C(F)F)o4)cc3F)c3ccccc32)CC1 [Compound 14, 1-(4-(5-(difluoromethyl)-1,3,4-oxadiazole-2-yl)-2-fluorobenzyl)-3-(1-ethylpiperidine-4-yl)-1,3-dihydro-2H-benzo[d]imidazole-2-one]	> 10000 nM	209 nM
CC(C)N1CCC(n2c(=O)n(Cc3ccc(-c4nnc(C(F)F)o4)cc3F)c3ccccc32)CC1 [Compound 15, 1-(4-(5-(difluoromethyl)-1,3,4-oxadiazole-2-yl)-2-fluorobenzyl)-3-(1-isopropylpiperidine-4-yl)-1,3-dihydro-2H-benzo[d]imidazole-2-one]	> 10000 nM	193 nM
O=c1n(Cc2ccc(-c3nnc(C(F)F)o3)cn2)c2cc(F)ccc2n1C1CCN(C2CCC2)CC1 [Compound 52, 1-(1-cyclobutylpiperidine-4-yl)-3-((5-(5-(difluoromethyl)-1,3,4-oxadiazole-2-yl)pyridine-2-yl)methyl)-5-fluoro-1,3-dihydro-2H-benzo[d]imidazole-2-one]	> 10000 nM	–
O=c1n(Cc2ccc(-c3nnc(C(F)F)o3)cn2)c2cc(F)ccc2n1C1CCS(=O)(=O)CC1 [Compound 188, 3-((5-(5-(difluoromethyl)-1,3,4-oxadiazole-2-yl)pyridine-2-yl)methyl)-1-(1,1-dioxydotetrahydro-2H-thiopyran-4-yl)-5-fluoro-1,3-dihydro-2H-benzo[d]imidazole-2-one]	> 10000 nM	–
Cn1nccc1-c1cc2c(cc1F)n(Cc1ccc(-c3nnc(C(F)F)o3)cn1)c(=O)n2C [Compound 226, 1-((5-(5-(difluoromethyl)-1,3,4-oxadiazole-2-yl)pyridine-2-yl)methyl)-6-fluoro-3-methy 1-5-(1-methyl-1H-pyrazole-5-yl)-1,3-dihydro-2H-benzo[d]imidazole-2-one]	> 10000 nM	–
CN1CCN(c2cc3c(cc2F)n(Cc2ccc(-c4nnc(C(F)F)o4)cn2)c(=O)n3C)CC1 [Compound 260, 1-((5-(5-(difluoromethyl)-1,3,4-oxadiazole-2-yl)pyridine-2-yl)methyl)-6-fluoro-3-methy 1-5-(4-methylpiperazine-1-yl)-1,3-dihydro-2H-benzo[d]imidazole-2-one]	> 10000 nM	–
